Measured values from patent US9109001B2, “3′,5′-cyclic phosphoramidate prodrugs for HCV infection” (priority 2012, dated 2015).

Assays:
[1] = Stability in simulated intestinal fluid; type: in vitro ADME; details: 100 μM, 2 hours at 37° C.; percent of peak area at time zero
Procedure: Stability in Simulated Gastric and Intestinal Fluids: Simulated gastric and intestinal fluids containing pepsin and pancreatin respectively were prepared according to the U.S. Pharmacopoeia USP291 procedure (www.pharmacopeia.cn/v29240/usp29nf24s0_ris1s126.html). Test compound (final concentration 100 μM) was incubated in duplicate in the appropriate fluid for 2 hours at 37° C. The samples were quenched with 200 μl cold acetonitrile, vortexed for 30 seconds and then centrifuged at 16,100 g for 10 min. The supernatants were analyzed by HPLC on a C-18 column with UV detection at 252 nm. The time 0 samples were prepared by adding SGF or SIF fluid to the quenching solvent followed by the test compound. Stability of the compound was determined by peak area the test compound after incubation and calculated as percent of the peak area observed at time zero.

Stability in mouse blood = type: in vitro ADME; details: on ice, percent unchanged test compound
Procedure: Stability in Fresh Whole Blood: Stability of test compounds were determined in fresh human whole blood with K2EDTA as the anticoagulant (stored refrigerated at 2-8° C. and used within 7 days of receipt). The experiment was conducted with three replicates for each time point. Whole blood, pre-incubated at 37° C. for 10-15 minutes, was fortified with a solution of test compound for a final concentration of 0.5 μM and mixed for 30 sec. At intervals (0, 0.5, 1 and 2 hr), three 50-μL aliquots were combined with 200 μL (each) of an ice-cold solution of the internal standard (carbutamide 500 ng/mL in acetonitrile). The samples were vortexed for 30 sec and then centrifuged at 16,100 g for 5 min. The supernatant was analyzed by LC-MS/MS. The MS peak area ratio of the test compound versus the internal standard was calculated and percent unchanged test compound was calculated for each time point using this ratio.
The stability in mouse blood was determined on ice at 0, 0.5 and 1 hr as above.

[2] = Stability in human liver microsomes; type: in vitro ADME; details: 10 μM, 1.0 mg/mL protein, NADPH, 60 min; percent unchanged
Procedure: (§1) Stability in Liver and Intestinal Subcellular Fractions: Stability of test compounds were determined in subcellular fractions (microsomes and S9) of human liver and intestine in duplicate for each matrix. Pooled liver and intestinal microsomal, intestinal and liver S9 proteins (1.0 mg/mL), suspended in incubation buffer (100 mM potassium phosphate, pH 7.4, 5 mM MgCl2, and 0.1 mM EDTA), were preincubated for 5 min at 37° C. with 10 μM of a test compound from a 10 mM stock solution in DMSO (final DMSO concentration was 0.1%); the reaction was initiated by the addition of NADPH (3 mM final concentration). At specific times (0 and 60 min), 0.1 mL samples were taken and the reaction terminated by the addition of 4 volumes of stop solution (acetonitrile with 500 ng/mL carbutamide as an internal standard). The samples were vortexed for 30 sec and then centrifuged at 16,000 g for 10 min. 100 μL of supernatants were transferred to 96 deep-well plates preloaded with 100 μL distilled water and analyzed after mixing by LC-MS/MS. The MS peak area ratio of the test compound versus the internal standard was calculated and percent unchanged test compound over 60 minutes was calculated using this ratio.

[3] = Stability in human intestinal microsomes; type: in vitro ADME; details: 10 μM, 1.0 mg/mL protein, NADPH, 60 min; percent unchanged
Procedure: as §1

[4] = Stability in human liver S9 fraction; type: in vitro ADME; details: 10 μM, 1.0 mg/mL protein, NADPH, 60 min; percent unchanged
Procedure: as §1

fresh human hepatocytes = test: Release of active metabolite in fresh human hepatocytes; type: in vitro ADME; details: 10 μM
Procedure: Assay for the Release of Active Metabolite in Primary Hepatocytes: Plates of fresh human and mouse hepatocytes were obtained on ice. The medium was removed and replaced with hepatocyte culture medium (William's E supplemented with penicillin-streptomycin, 1% L-glutamine, 1% insulin-transferrin-selenium and 0.1 μM Dexamethasone (Invitrogen) or with Invitro GRO HI medium complemented with Torpedo antibiotics (Celsis)). Cells were left overnight in an incubator at 37° C. to acclimatize to culture and the medium.
Hepatocyte incubations were conducted at a final volume of 0.5 mL hepatocyte culture medium/well (0.8 million cells/well for human and 0.5 million cells/well for mouse; 12 well plate no overlay, collagen coat). Culture medium from overnight incubation of cells was removed and replaced with fresh medium, pre-warmed to 37° C., containing 10 μM of test compound from a stock solution in DMSO (final DMSO concentration was 0.1%). At each specific time point, incubation medium was removed and cell monolayers were carefully washed two times with ice-cold PBS. Following the last wash, all PBS was carefully removed and 1.0 mL of extraction solution (ice-cold 70% methanol/30% water) added. Cells were scraped off and suspended in the extraction solution, transferred to 2 mL polypropylene microfuge tubes and intracellular contents extracted overnight at −20° C.
After the overnight treatment the cellular extracts were prepared by centrifugation at 16,000×g for 10 min to remove cellular debris. The remaining sample was then dried using a refrigerated centrivap concentrator. Dry extracts were reconstituted in 1000 μL of HPLC-grade water and centrifuged at 16,000×g for 10 min. Aliquots (100 μL each) of the supernatant were transferred into a 96 well plate and internal standard (4 ng/mL final concentration) was added as the internal standard (IS) for LC-MS/MS analysis.
The incubation time points were 6, 24 and 48 hours for human hepatocytes and 1, 4, 8, 12 and 24 hours for mouse hepatocytes.

[5] = Plasma and liver pharmacokinetics following a single oral dose in CD-1 mice; type: in vivo; details: CD-1 male mice; for Ms Liver 2′-MeGTP AUC (pmol · hr/g at 1 μmol/kg): single oral dose 25 mg/kg in PEG 200, liver 2′-MeGTP; for Ms Plasma 2′-MeG AUC (pmol · hr/mL at 1 μmol/kg) / Ms Plasma 2′-MeG Cmax (pmol/mL at 1 μmol/kg): single oral dose 25 mg/kg in PEG 200, plasma 2′-MeG
Procedure: Plasma samples were analyzed for 2′-methylguanosine (2′-MeG) by LC-MS/MS. The internal standard (IS) was 2′-MeG-D3. For protein precipitation and extraction, each plasma sample (50 μL) was treated with 500 μL of 0.2% formic acid in acetonitrile and 20 μL of the internal standard working solution. After vortexing and centrifugation, 500 μL of the sample extracts were transferred to a new plate, dried under N2 at ˜28° C. and reconstituted with 75 μL of 0.2% FA in water. The extracts were chromatographed on an Aquasil C18 column using a gradient system of 0.2% formic acid in water and acetonitrile. The analytes were detected and quantified by tandem mass spectrometry in positive ion mode on an MDS Sciex API5000 equipped with a Turbo Ionspray® interface. The calibration range was 0.500 (LLOQ) to 200 ng/mL in mouse plasma. The corresponding range for molar units is 1.68 to 673 pmol/mL.
Liver samples were analyzed for the active species 2′-methylguanosine triphosphate (2′-MeGTP) by LC-MS/MS. […] Internal standard solution was added to the homogenate followed by neutralization with 20% ammonium hydroxide solution and addition of 500 μL 1% formic acid. The tissue samples were extracted by weak anion exchange solid phase extraction (SPE). Post extraction, the eluates were evaporated under nitrogen, followed by reconstitution before injection onto the LC-MS/MS system. […] The calibration range was 10 to 10000 pmol/mL in mouse liver homogenate (50 to 50000 pmol/g of mouse liver).

SMILES | Stability SIF [1] | Stability WB_Mouse (ice; 1 hr) (Stability in mouse blood) | Stability HLM (1 hr) [2] | Stability HIM (1 hr) [3] | Stability HLS9 (1 hr) [4] | FHH TP AUC (pmol · hr/mill cells) (fresh human hepatocytes) | FHH TP Cmax (pmol/mill cells) (fresh human hepatocytes) | FHH TP (24 hr) (fresh human hepatocytes; 24 hr) | Ms Liver 2′-MeGTP AUC (pmol · hr/g at 1 μmol/kg) [5] | Ms Plasma 2′-MeG AUC (pmol · hr/mL at 1 μmol/kg) [5] | Ms Plasma 2′-MeG Cmax (pmol/mL at 1 μmol/kg) [5] | FHH TP (48 hr) (fresh human hepatocytes; 48 hr)
CCOc1nc(N)nc2c1ncn2[C@@H]1O[C@@H]2COP(=O)(N[C@@H](C)C(=O)OC(C)C)O[C@H]2[C@@]1(C)F (single isomer, unassigned) [Compound 1 Diastereomer 1] | 83% | 92% | 11% | 70% | 51% | 9842 pmol · hr/mill cells | 687 pmol/mill cells | BLD^a | 2400 pmol · hr/g at 1 μmol/kg | 110 pmol · hr/mL at 1 μmol/kg | 14 pmol/mL at 1 μmol/kg | –
CCOc1nc(N)nc2c1ncn2[C@@H]1O[C@@H]2COP(=O)(N[C@@H](C)C(=O)OC(C)C)O[C@H]2[C@@]1(C)F (single isomer, unassigned) [Compound 1 Diastereomer 2] | 2% | 36% | 52% | 98% | 66% | 5774 pmol · hr/mill cells | 309 pmol/mill cells | – | 810 pmol · hr/g at 1 μmol/kg | 92 pmol · hr/mL at 1 μmol/kg | 9.8 pmol/mL at 1 μmol/kg | BLD^a
